# According to patent publication US12600696B2 (XENIOPRO GMBH, priority 2017, dated 2026):
# How the values were obtained:
# Format in all cases: cell-based
# [1] = test system: HL-60 cells (human acute myeloid leukemia cells); experiment: alamarBlue proliferation assay with HL-60 cells; conditions: 120 h, 5 days, relative to DMSO baseline level of 1.0, read-out: AVEw, weighted arithmetic mean of normalized fluorescence intensity values (Activity Range), HL-60 proliferation
# In short: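 HL-60 cells (1000/well, RPMI 1640 + 10% FBS) exposed to compound in 0.1% DMSO for 5 days, then alamarBlue fluorescence read (ex 560/em 590 nm). Signals normalized to six DMSO wells per plate (baseline 1.0); outliers removed by Peirce/Chauvenet; weighted mean with combined SD; inhibitor criterion judged at 20 μM reference concentration.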
# [2] = test system: CAL-27 cells (human tongue squamous cell carcinoma cells); experiment: alamarBlue proliferation assay with CAL-27 cells; conditions: for activity at 20 µM / activity at 40 µM: Homo sapiens, 120 h; for activity at 20 µM: relative to DMSO baseline level of 1.0, read-out: AVEw, weighted arithmetic mean of normalized fluorescence intensity values (Activity Range), CAL-27 proliferation; for activity at 40 µM: relative to DMSO basis level 1.0, read-out: weighted arithmetic mean (AVEw) of normalized fluorescence intensity, activity range
# In short: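 CAL-27 cells seeded at 2000 per well, exposed to compound in 0.1% DMSO for 5 days, then alamarBlue fluorescence (ex 560/em 590 nm). Values normalized to DMSO wells (1.0) as weighted means with combined standard deviation; growth inhibition judged at 20 μM reference concentration.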
# [3] = test system: TT cells (human medullary thyroid carcinoma cells); experiment: alamarBlue proliferation assay with TT cells; conditions: for activity at 40 µM: Homo sapiens, 120 h, relative to DMSO basis level 1.0, read-out: weighted arithmetic mean (AVEw) of normalized fluorescence intensity, activity range
# Description: The antiproliferative activities of compounds falling under formula I, formula II, formula III, formula IV and formula V were investigated on cells or cell lines originating from a disorder of the myeloid cell compartment, the neuroendocrine system, the cervix, and the mucosal epithelium, as well as from the skin epithelium. To this end, HL-60 cells, TT cells, HeLa cells, CAL-27 cells and human primary epidermal keratinocytes (HPEK) were seeded into 96-well plates suitable for fluorescence assays (CORNING #3598) at following initial cell numbers: 1000 cells per well for HL-60; 9000 cells per well for TT; 2000 cells per well for HeLa, 2000 cells per well for CAL-27, 2000 cells per well for HPEK. The cells were treated with compounds at indicated final concentrations (diluted from the 1000× stock-solutions in DMSO to a final DMSO concentration of 0.1% v/v) or with the empty carrier DMSO at 0.1% v/v as control for 5 days. At day 5 after starting the treatments the cells were subjected to the alamarBlue® Proliferation Assay (Bio-Rad Serotec GmbH, BUF012B) according to the protocol of the manufacturer. The readout was taken with a multi-well plate-reader in the fluorescence mode with applying a filter for excitation at 560 nm (band width 10 nm) and for emission at 590 nm (band width 10 nm). Resveratrol (RES) treatment was included as control for growth inhibition.
# The assays were performed in duplicate or more replicates of independent single experiments each containing a six-fold replicate for every condition. For every individual plate, the measured fluorescence intensity values of the conditions with compound treatment were normalized against the corresponding equally weighted arithmetic mean of the fluorescence intensity values of the six DMSO treated control wells in order to obtain the relative values to a baseline level of 1.0. The statistical calculations were performed in analogy to the luciferase assay as described above. To this end, two independent outlier analyses were performed according to the methods by Peirce and Chauvenet (Ross, Journal of Engineering Technology 2003, 1-12). Outliers confirmed by at least one of the methods were excluded from the calculations but not more than one value out of six per compound within a single experiment. The weighted arithmetic mean AVEw for each compound was calculated from the normalized values over all independent replicates of the single experiments comprising the six replicates each. The corresponding standard deviation for the weighted arithmetic mean was calculated according to the method described by Bronstein et al. (Bronstein, Semendjajew, Musiol, Mühlig, Taschenbuch der Mathematik, 5th edition 2001 (German), publisher: Verlag Harri Deutsch, Frankfurt am Main and Thun) and was combined with the Gauß′ error propagation associated with the performed calculation for the normalization. The resulting standard deviation is herein referred to as “combined standard deviation”.
# TT cells were cultivated according to the protocol of the provider in F-12K medium (Fisherscientific, #11580556, or ATCC, #ATCC-30-2004) containing 10% fetal bovine serum (Fisherscientific, #15517589).
# A compound is considered as a growth inhibitor of TT cells, if—at a reference concentration of 40 μM—the weighted arithmetic mean of the normalized fluorescence intensity values after addition of the corresponding combined standard deviation amounts to 0.9 or lower, in particular to 0.8 or lower, 0.7 or lower, 0.6 or lower, 0.4 or lower, and 0.2 or lower, relative to the overall basis level of 1.0. The overall basis level was calculated as the weighted arithmetic mean of all normalized values from the DMSO control measurements in analogy to the calculations performed for the test-compounds. The corresponding combined standard deviation for the DMSO values amounts to less than 1·10^−2.
# [4] = control RES at 20 μM, relative to DMSO basis level 1.0
SMILES,activity at 20 µM [1] [%],"AVEw, weighted arithmetic mean of normalized fluorescence intensity values, CAL-27 proliferation ([2]; 40 μM (control RES 40 μM), 5 days, relative to DMSO baseline level of 1.0)",activity at 20 µM ([2]; 5 days) [%],activity at 40 µM [2] [%],"weighted arithmetic mean (AVEw) of normalized fluorescence intensity [2, 4]",activity at 40 µM [3] [%],"weighted arithmetic mean (AVEw) of normalized fluorescence intensity [3, 4]"
"Oc1ccc(C=Cc2cc(O)cc(O)c2)cc1 [RES, resveratrol, reference compound]",40,0.4 ± 0.0,90,50,0.9 ± 0.0,80,0.9 ± 0.0
"CNC(=O)c1ccc(Oc2ccc(C(F)(F)F)cc2)nc1 [Compound 300, N-methyl-6-(4-(trifluoromethyl)phenoxy)nicotinamide]",80 to 90,–,80 to 90,80 to 90,–,–,–
"CC(C)c1ccc(Oc2ccc(C(=O)NO)cn2)cc1 [Compound 272, N-hydroxy-6-(4-isopropylphenoxy)nicotinamide]",0 to 20,–,0 to 20,0 to 20,–,0 to 20,–
"O=C(NO)c1ccc(Oc2ccc(C34CC5CC(CC(C5)C3)C4)cc2)nc1 [Compound 288, 6-(4-((3r,5r,7r)-adamantan-1-yl)phenoxy)-N-hydroxynicotinamide]",0 to 20,–,20 to 40,–,–,0 to 20,–
"O=C(NO)c1ccc(Oc2ccc(C3CCCCC3)cc2)nc1 [Compound 284, 6-(4-Cyclohexylphenoxy)-N-hydroxynicotinamide]",0 to 20,–,0 to 20,–,–,0 to 20,–
"CCCc1ccc(Oc2ccc(C(=O)NO)cc2)cc1 [Compound 166, N-hydroxy-4-(4-propylphenoxy)benzamide]",0 to 20,–,20 to 40,0 to 20,–,20 to 40,–
"O=C(NO)c1ccc(Oc2ccc(C34CC5CC(CC(C5)C3)C4)cc2)cc1 [Compound 186, 4-(4-(Adamantan-1-yl)phenoxy)-N-hydroxybenzamide]",0 to 20,–,0 to 20,–,–,20 to 40,–
"CCC(C)(C)c1ccc(Oc2ccc(C(=O)NO)cn2)cc1 [Compound 273, N-hydroxy-6-(4-(tert-pentyl)phenoxy)nicotinamide]",0 to 20,–,0 to 20,–,–,–,–
"NC(=O)c1ccc(Oc2ccc(C3CC4CCC3C4)cc2)cc1 (racemic) [Compound 159, (±)-4-(4-(Bicyclo[2.2.1]heptan-2-yl)phenoxy)benzamide]",40 to 60,–,–,60 to 70,–,80 to 90,–
"O=C(NO)c1ccc(Oc2ccc(C3CCCCC3)cc2)cc1 [Compound 182, 4-(4-cyclohexylphenoxy)-N-hydroxybenzamide]",0 to 20,–,20 to 40,–,–,20 to 40,–
"O=C(NO)c1cnc(Oc2ccc(C3CCCCC3)cc2)c(F)c1 [Compound 644, 6-(4-Cyclohexylphenoxy)-5-fluoro-N-hydroxynicotinamide]",0 to 20,–,0 to 20,–,–,20 to 40,–
"O=C(NO)c1ccc(Oc2ccc(C34CC5CC(CC(C5)C3)C4)cc2)c(F)c1 [Compound 544, 4-(4-(Adamantan-1-yl)phenoxy)-3-fluoro-N-hydroxybenzamide]",0 to 20,–,0 to 20,–,–,20 to 40,–
"CN(C)C(=O)c1ccc(Oc2ccc(C3CCCCC3)cc2)nc1 [Compound 334, 6-(4-cyclohexylphenoxy)-N,N-dimethylnicotinamide]",60 to 70,–,–,80 to 90,–,80 to 90,–
"CCC(C)(C)c1ccc(Oc2ccc(C(=O)NO)cc2)cc1 [Compound 171, N-hydroxy-4-(4-(tert-pentyl)phenoxy)benzamide]",0 to 20,–,0 to 20,–,–,20 to 40,–
"O=C(NO)c1ccc(Oc2ccc(C3CC4CCC3CC4)cc2)nc1 (stereo not drawn) [Compound 287, 6-(4-((1s,4s)-bicyclo[2.2.2]octan-2-yl)phenoxy)-N-hydroxynicotinamide]",0 to 20,–,20 to 40,0 to 20,–,20 to 40,–
